According to patent US20210395256A1, “TYROSINE KINASE INHIBITORS, COMPOSITIONS AND METHODS THERE OF” (Betta Pharmaceuticals Co., Ltd., priority 2018, published 2021):

Target: TrkA kinase (Homo sapiens, UniProt P04629)
Test: TrkA kinase assay (mobility shift assay)
Assay type: biochemical
Conditions: class symbols; read-out: Trk A Kinase IC50
Procedure: Example 201 TrkA Kinase Assay
Mobility shift assay was used to determine the inhibitory activity of compounds against TrkA kinase. Assay procedures are as follows:
1× Kinase base buffer (50 mM HEPES, pH 7.5; 0.0015% Brij-35)
Stop buffer (100 mM HEPES, pH 7.5; 0.015% Brij-35; 0.2% Coating Reagent #3; 50 mM EDTA)
1) Dilute the compound to 50× of the final desired highest inhibitor concentration in reaction by 100% DMSO. Transfer 100 μl of this compound dilution to a well in a 96-well plate.
2) For all compounds, transfer the compound in tubes to one well on 96-well storage plate and serially dilute the compound by transferring 30 μl to 60 μl of 100% DMSO in the next well and so forth for a total of 10 concentrations.
3) Add 100 μl of 100% DMSO to two empty wells for no compound control and no enzyme control in the same 96-well plate. Mark the plate as source plate.
4) Prepare intermediate plate
Transfer 10 μl of compound from source plate to a new 96-well plate as the intermediate plate
Add 90 µl of 1× kinase buffer to each well of the intermediate plate.
Mix the compounds in intermediate plate for 10 min on shaker.
1) Transfer 5 μl of each well from the 96-well intermediate plate to a 384-well plate in duplicates. For example, A1 of the 96-well plate is transferred to A1 and A2 of the 384-well plate. A2 of the 96-well plate is transferred to A3 and A4 of the 384-well plate, and so on.
1) Prepare 2.5× enzyme solution
Add kinase in 1× kinase base buffer.
2) Prepare 2.5× peptide solution Add FAM-labeled peptide and ATP in the 1× kinase base buffer.
3) Assay plate already contains 5 μl of compound in 10% DMSO.
4) Transfer 2.5× enzyme solution to the assay plate
Add 10 μl of 2.5× enzyme solution to each well of the 384-well assay plate.
5) Incubate at room temperature for 10 min.
6) Transfer 2.5× peptide solution to the assay plate
Add 10 μl of 2.5× peptide solution to each well of the 384-well assay plate.
Kinase reaction conditions are shown as Table 11:
7) Kinase reaction and stop
Incubate at 28° C. for specified period of time.
Add 25 μl of stop buffer to stop reaction.
1) Copy conversion data from Caliper program.
2) Convert conversion values to inhibition values.
Percent inhibition=(max-conversion)/(max-min)*100.
“max” stands for DMSO control; “min” stands for low control.
3) Fit the data in XLFit excel add-in version 5.4.0.8 to obtain IC50 values.
Equation used is: Y=Bottom+(Top-Bottom)/(1+(IC50/X)^HillSlope)

Sequence of TrkA kinase (P04629 33-796): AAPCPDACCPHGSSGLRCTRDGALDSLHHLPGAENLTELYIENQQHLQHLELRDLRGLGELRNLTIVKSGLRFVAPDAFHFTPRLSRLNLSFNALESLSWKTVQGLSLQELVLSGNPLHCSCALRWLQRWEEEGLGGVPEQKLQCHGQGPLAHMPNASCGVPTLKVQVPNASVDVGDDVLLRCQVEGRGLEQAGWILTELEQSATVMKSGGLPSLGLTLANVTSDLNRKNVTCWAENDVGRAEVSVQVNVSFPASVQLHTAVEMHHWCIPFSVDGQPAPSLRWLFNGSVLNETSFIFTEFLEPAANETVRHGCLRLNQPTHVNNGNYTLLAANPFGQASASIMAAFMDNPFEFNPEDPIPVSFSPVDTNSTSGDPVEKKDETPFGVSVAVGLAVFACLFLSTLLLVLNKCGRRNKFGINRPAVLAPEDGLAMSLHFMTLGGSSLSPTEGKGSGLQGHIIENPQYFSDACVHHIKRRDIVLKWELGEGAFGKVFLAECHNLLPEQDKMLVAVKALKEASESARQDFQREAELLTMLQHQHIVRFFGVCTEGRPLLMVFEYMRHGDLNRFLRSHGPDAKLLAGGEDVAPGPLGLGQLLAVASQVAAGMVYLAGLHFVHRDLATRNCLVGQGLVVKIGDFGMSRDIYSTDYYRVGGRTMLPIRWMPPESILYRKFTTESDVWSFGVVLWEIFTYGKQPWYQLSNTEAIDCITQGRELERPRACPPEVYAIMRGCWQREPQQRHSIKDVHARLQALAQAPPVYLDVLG

Row | Compound | IC50
1 | Fc1ccc(F)c([C@H]2CCCN2c2ccn3ncc(-c4nc5cnccc5s4)c3n2)c1 [Compound 75, (R)-2-(5-(2-(2,5-difluorophenyl)pyrrolidin-1-yl)pyrazolo[1,5-a]pyrimidin-3-yl)thiazolo[4,5-c]pyridine] | ≤ 10 nM
2 | Fc1ccc(F)c([C@H]2CCCN2c2ccn3ncc(-c4nc5cc6c(cc5[nH]4)OCCOCCOCCO6)c3n2)c1 [Compound 82, (R)-2-(5-(2-(2,5-difluorophenyl)pyrrolidin-1-yl)pyrazolo[1,5-a]pyrimidin-3-yl)-6,7,9,10,12,13-hexahydro-1H-[1,4,7,10]tetraoxacyclododecino[2′,3′:4,5]benzo[1,2-d]imidazole] | 10 to 50 nM
3 | Cn1c(-c2cnn3ccc(N4CCC[C@@H]4c4cc(F)ccc4F)nc23)nc2cc3c(cc21)OCCO3 [Compound 83, (R)-2-(5-(2-(2,5-difluorophenyl)pyrrolidin-1-yl)pyrazolo[1,5-a]pyrimidin-3-yl)-1-methyl-6,7-dihydro-1H-[1,4]dioxino[2′,3′:4,5]benzo[1,2-d]imidazole] | > 50 nM
4 | COc1cc2nc(-c3cnn4ccc(N5CCC[C@@H]5c5cc(F)ccc5F)nc34)[nH]c2cc1C(=O)NO [Compound 89, (R)-2-(5-(2-(2,5-difluorophenyl)pyrrolidin-1-yl)pyrazolo[1,5-a]pyrimidin-3-yl)-N-hydroxy-5-methoxy-1H-benzo[d]imidazole-6-carboxamide] | 10 to 50 nM
5 | CC(O)c1cc2nc(-c3cnn4ccc(N5CCC[C@@H]5c5cc(F)ccc5F)nc34)oc2cc1F (stereo partly drawn) [Compound 93, 1-(2-(5-((R)-2-(2,5-difluorophenyl)pyrrolidin-1-yl)pyrazolo[1,5-a]pyrimidin-3-yl)-6-fluorobenzo[d]oxazol-5-yl)ethan-1-ol] | ≤ 10 nM
6 | Cc1ccc2nc(-c3cnn4ccc(N5CCC[C@@H]5c5cc(F)ccc5F)nc34)[nH]c2n1 [Compound 106, (R)-2-(5-(2-(2,5-difluorophenyl)pyrrolidin-1-yl)pyrazolo[1,5-a]pyrimidin-3-yl)-5-methyl-3H-imidazo[4,5-b]pyridine] | ≤ 10 nM

Same assay, conditions: numeric values; read-out: Trk A Kinase IC50

Row | Compound | IC50
7 | COc1ccc2nc(-c3cnn4ccc(N5CCC[C@@H]5c5cc(F)ccc5F)nc34)[nH]c2c1 [Compound 77, (R)-5-(2-(2,5-difluorophenyl)pyrrolidin-1-yl)-3-(6-methoxy-1H-benzo[d]imidazol-2-yl)pyrazolo[1,5-a]pyrimidine] | 0.7 nM
8 | COc1cc2nc(-c3cnn4ccc(N5CCC[C@@H]5c5cc(F)ccc5F)nc34)[nH]c2cc1OC [Compound 78, (R)-5-(2-(2,5-difluorophenyl)pyrrolidin-1-yl)-3-(5,6-dimethoxy-1H-benzo[d]imidazol-2-yl)pyrazolo[1,5-a]pyrimidine] | 0.73 nM
9 | Fc1ccc(F)c([C@H]2CCCN2c2ccn3ncc(-c4nc5ccc(OC(F)F)cc5[nH]4)c3n2)c1 [Compound 81, (R)-3-(6-(difluoromethoxy)-1H-benzo[d]imidazol-2-yl)-5-(2-(2,5-difluorophenyl)pyrrolidin-1-yl)pyrazolo[1,5-a]pyrimidine] | 2.18 nM
10 | COc1ccc2nc(-c3cnn4ccc(N5CCC[C@@H]5c5cc(F)ccc5F)nc34)[nH]c2n1 [Compound 84, (R)-2-(5-(2-(2,5-difluorophenyl)pyrrolidin-1-yl)pyrazolo[1,5-a]pyrimidin-3-yl)-5-methoxy-3H-imidazo[4,5-b]pyridine] | 0.18 nM
11 | COc1cc2[nH]c(-c3cnn4ccc(N5CCC[C@@H]5c5cc(F)ccc5F)nc34)nc2cn1 [Compound 85, (R)-2-(5-(2-(2,5-difluorophenyl)pyrrolidin-1-yl)pyrazolo[1,5-a]pyrimidin-3-yl)-6-methoxy-1H-imidazo[4,5-c]pyridine] | 0.31 nM
12 | Cc1cc2[nH]c(-c3cnn4ccc(N5CCC[C@@H]5c5cc(F)ccc5F)nc34)nc2cn1 [Compound 86, (R)-2-(5-(2-(2,5-difluorophenyl)pyrrolidin-1-yl)pyrazolo[1,5-a]pyrimidin-3-yl)-6-methy1-1H-imidazo[4,5-c]pyridine] | 0.76 nM
13 | COc1cc2nc(-c3cnn4ccc(N5CCC[C@@H]5c5cc(F)ccc5F)nc34)[nH]c2cc1C(N)=O [Compound 91, (R)-2-(5-(2-(2,5-difluorophenyl)pyrrolidin-1-yl)pyrazolo[1,5-a]pyrimidin-3-yl)-5-methoxy-1H-benzo[d]imidazole-6-carboxamide] | 0.26 nM
14 | COc1cccc2oc(-c3cnn4ccc(N5CCC[C@@H]5c5cc(F)ccc5F)nc34)nc12 [Compound 100, (R)-2-(5-(2-(2,5-difluorophenyl)pyrrolidin-1-yl)pyrazolo[1,5-a]pyrimidin-3-yl)-4-methoxybenzo[d]oxazole] | 1 nM

Other lines, results leading:

Row | IC50 | Compound
15 | 0.73 nM | Nc1ncnc2nc(-c3cnn4ccc(N5CCC[C@@H]5c5cc(F)ccc5F)nc34)[nH]c12 [Compound 87, (R)-8-(5-(2-(2,5-difluorophenyl)pyrrolidin-1-yl)pyrazolo[1,5-a]pyrimidin-3-yl)-7H-purin-6-amine]
16 | 0.77 nM | Oc1ncnc2nc(-c3cnn4ccc(N5CCC[C@@H]5c5cc(F)ccc5F)nc34)[nH]c12 [Compound 88, (R)-8-(5-(2-(2,5-difluorophenyl)pyrrolidin-1-yl)pyrazolo[1,5-a]pyrimidin-3-yl)-7H-purin-6-ol]
17 | 1.9 nM | Fc1ccc(F)c([C@H]2CCCN2c2ccn3ncc(-c4nc5cccc(Cl)c5[nH]4)c3n2)c1 [Compound 97, (R)-3-(7-chloro-1H-benzo[d]imidazol-2-yl)-5-(2-(2,5-difluorophenyl)pyrrolidin-1-yl)pyrazolo[1,5-a]pyrimidine]
18 | 8.8 nM | Fc1ccc(F)c([C@H]2CCCN2c2ccn3ncc(-c4nc5cc(F)cc(Cl)c5[nH]4)c3n2)c1 [Compound 98, (R)-3-(7-chloro-5-fluoro-1H-benzo[d]imidazol-2-yl)-5-(2-(2,5-difluorophenyl)pyrrolidin-1-yl)pyrazolo[1,5-a]pyrimidine]
19 | 0.5 nM | Cc1cncc2nc(-c3cnn4ccc(N5CCC[C@@H]5c5cc(F)ccc5F)nc34)[nH]c12 [Compound 99, (R)-2-(5-(2-(2,5-difluorophenyl)pyrrolidin-1-yl)pyrazolo[1,5-a]pyrimidin-3-yl)-7-methyl-1H-imidazo[4,5-c]pyridine]
20 | 7 nM | Fc1ccc(F)c([C@H]2CCCN2c2ccn3ncc(-c4nc5ncc(Cl)c(Cl)c5[nH]4)c3n2)c1 [Compound 102, (R)-6,7-dichloro-2-(5-(2-(2,5-difluorophenyl)pyrrolidin-1-yl)pyrazolo[1,5-a]pyrimidin-3-yl)-1H-imidazo[4,5-b]pyridine]
21 | 1.2 nM | Cc1nccc2nc(-c3cnn4ccc(N5CCC[C@@H]5c5cc(F)ccc5F)nc34)[nH]c12 [Compound 103, (R)-2-(5-(2-(2,5-difluorophenyl)pyrrolidin-1-yl)pyrazolo[1,5-a]pyrimidin-3-yl)-4-methyl-3H-imidazo[4,5-c]pyridine]
22 | 13.5 nM | Fc1ccc(F)c([C@H]2CCCN2c2ccn3ncc(-c4nc5c(Cl)ccc(Cl)c5[nH]4)c3n2)c1 [Compound 104, (R)-3-(4,7-dichloro-1H-benzo[d]imidazol-2-yl)-5-(2-(2,5-difluorophenyl)pyrrolidin-1-yl)pyrazolo[1,5-a]pyrimidine]
23 | 32.9 nM | Fc1ccc(F)c([C@H]2CCCN2c2ccn3ncc(-c4nc5cc(Cl)c(Cl)cc5[nH]4)c3n2)c1 [Compound 105, (R)-3-(5,6-dichloro-1H-benzo[d]imidazol-2-yl)-5-(2-(2,5-difluorophenyl)pyrrolidin-1-yl)pyrazolo[1,5-a]pyrimidine]
